Test results taken from patent EP0306300B1, “Pyrrolo(1,2-a)imidazole and imidazo(1,2-a)pyridine derivatives and their use as 5-lipoxygenase pathway inhibitors” (SMITHKLINE BEECHAM CORPORATION, priority 1987, dated 1989).
“Also recorded” adds a separate entry of the source. Read-outs that look alike come from different tables or passages of the source.

Key:
[1] = test system: cynomolgus monkeys; experiment: CNS activity / oral toxicity in cynomolgus monkeys; conditions: cynomolgus monkey, in vivo
Description: Additional monkeys tolerated repeated doses of 45 mg/kg or 30 mg/kg and one animal tolerated an escalating dose schedule of 30-90-120 mg/kg.
The two monkeys administered 400 mg/kg were repeatedly administered this dose for 7 consecutive days; each animal experienced emesis within 1 to 5 hours of dosing after the 1st, 3rd and 4th doses, whereas only the female experienced emesis after the 5th, 6th and 7th doses. A complete necropsy, serum clinical chemistry, hematology and histological examination was completed on both monkeys.

[2] = Cytochrome P-450 inhibition (ethoxycoumarin-O-deethylase activity, phenobarbital-induced microsomes); conditions: rat
[3] = Log D determination by high pressure liquid chromatography; format: physicochemical; conditions: hplc ods, mobile phase MeOH:H2O, pH 7.4, read-out: (Log D) (Lipophilicity)
Description: The procedure used to determine the log D's listed on Table VI was as follows. A 20 »l sample was injected into a Shandon Hypersil ODS, 5» (100 mm x 4.6 mm ID) column and was eluted using a mobile phase of […] MeOH:H₂O (The aqueous portion was .01 M in KH₂PO₄ and adjusted to pH 7.4 with KOH after mixing the MeOH), at a flow rate of 2 ml per minute. Eluting peaks were detected by UV absorbance at […]. All samples were made up at 0.1 mg/ml. (Retentions were identical at 0.01 mg/ml.)
The data was analyzed by determining the regression line corresponding to the log k′ vs. literature log P of the reference standards.
The reference standards and their literature log P's included NaNO₂, 0.0; acetanalide, 1.16; acetophenone, 1.66; anisole, 2.08; chlorobenzene, 2.84; benzophenone, 3.18; anthracene, 4.45; and pentachlorobenzene, 5.12.

[4] = test system: arachidonic acid-induced edema in mice; experiment: Arachidonic acid-induced mouse ear inflammation (ear swelling); format: in vivo, male Balb/c mice; conditions: 1 h, 50 mg/kg s.c. or i.p., ear thickness one hour after 2 mg arachidonic acid
[5] = molecular target: T1, 5-Lipoxygenase (Rattus norvegicus, UniProt P12527); experiment: Assay of 5-lipoxygenase activity in RBL-1 high speed supernatant; format: biochemical; conditions: read-out: 5-LO IC50
T1 construct: the supernatant was centrifuged at 100,000 x g for 60 min; host or cells: RBL-1 cells (soluble cell extract, high-speed supernatant)
T1 sequence (P12527 1-673): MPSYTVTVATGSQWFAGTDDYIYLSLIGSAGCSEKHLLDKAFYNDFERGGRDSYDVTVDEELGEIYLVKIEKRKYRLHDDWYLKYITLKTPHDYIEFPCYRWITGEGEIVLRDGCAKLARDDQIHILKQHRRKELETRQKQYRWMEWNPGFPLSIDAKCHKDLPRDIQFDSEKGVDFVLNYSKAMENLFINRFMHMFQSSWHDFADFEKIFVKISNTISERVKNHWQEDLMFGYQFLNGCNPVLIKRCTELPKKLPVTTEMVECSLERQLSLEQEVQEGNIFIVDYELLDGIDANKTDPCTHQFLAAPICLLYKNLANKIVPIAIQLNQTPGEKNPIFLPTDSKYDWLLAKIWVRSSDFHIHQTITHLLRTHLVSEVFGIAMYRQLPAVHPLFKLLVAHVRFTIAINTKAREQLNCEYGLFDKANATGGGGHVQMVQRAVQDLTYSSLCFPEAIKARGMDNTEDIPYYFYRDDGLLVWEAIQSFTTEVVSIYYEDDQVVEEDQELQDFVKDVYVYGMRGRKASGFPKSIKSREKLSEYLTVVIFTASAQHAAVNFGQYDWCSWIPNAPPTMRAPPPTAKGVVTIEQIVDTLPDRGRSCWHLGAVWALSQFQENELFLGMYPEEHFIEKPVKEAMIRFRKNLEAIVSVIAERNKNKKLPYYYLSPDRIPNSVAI
Description: For in vitro experiments, compounds were dissolved at appropriate concentrations in ethanol (final concentration 1.0%) and then diluted to final concentrations using the buffers indicated in the text.
The activities of these enzymes in extracts of RBL-1 cells were assayed using the method of Jakschik and Lee, Nature, 287, 51-52 (1980). RBL-1 cells were obtained from the American Type Culture Collection (#CRL 1378) and were grown at 37°C (5% CO₂ in air) in spinner culture in MEM supplemented with 10% heat inactivated fetal calf serum. Harvested cells were washed with 50 mM sodium phosphate buffer, pH 7.0, containing 1 mM EDTA and 0.1% gelatin, resuspended in fresh buffer (5 x 10⁷ cells/ml) and disrupted by nitrogen cavitation using the Parr bomb at 750 psi for 10 min. The broken cell extract was then centrifuged at 10,000 x g for 20 minutes (min) and the supernatant was centrifuged at 100,000 x g for 60 min. Aliquots (0.25 mls) of the supernatant were preincubated with or without drugs for 10 min, after which 10 ul CaCl₂ (2 mM) was added and the reaction was initiated with 2.5 »l of 2.5 mM arachidonic acid-1-¹⁴C (final concentration was 25 »M; specific activity 20,000 dpm/nmole). After incubation for 5 minutes at 37°C, the reaction was terminated by addition of 2 volumes (0.5 ml) ice cold acetone and the sample was allowed to deproteinize on ice for 10 minutes prior to centrifugation at 1,000 x g for 10 minutes. The deproteinized supernatant was adjusted to pH 3.5 with 2N formic acid and extracted with 2 volumes of ice cold ethyl acetate. The extracted samples were dried under argon, redissolved in ethyl acetate and applied to Whatman LK5D thin layer chromatography (TLC) plates which were developed using the A-9 solvent system [organic phase of ethyl acetate: […]:acetic acid: water (110:50:20:10)] described by Hamberg and Samuelsson, J. Biol. Chem., 241, 257-263 (1966). Arachidonic acid, 5-HETE, LTB₄ and PGD₂ were quantified with a Berthold LB 2832 autoscanner.
Under these conditions, only the 5-lipoxygenase pathway metabolites were detectable. The 5-HETE and di-HETEs were formed at a linear rate, and […] amounts of the arachidonic acid-1-¹⁴C substrate were utilized.

[6] = test system: arachidonic acid-induced edema in mice; experiment: Arachidonic acid-induced mouse ear inflammation (ear swelling); format: in vivo, male Balb/c mice; conditions: for inhibition at 50 mg/kg: Mus musculus, po, 1 h, 50 mg/kg p.o., ear thickness one hour after 2 mg arachidonic acid; for antiinflammatory activity: p.o.
Description: In the tests used to determine activity as 5-lipoxygenase pathway inhibitors, male Balb/c mice (20-28 g), were used. All mice were obtained from Charles River Breeding Laboratories, Kingston, N.Y. Within a single experiment, mice were age matched.
Reagents were employed as follows: Compounds of Formula (I) were each used as the free base. The compounds were homogenized in 0.5% tragacanth. Compounds were administered by […] at the indicated dose in a final volume of 10 ml/kg.
Arachidonic acid in acetone (2 mg/20 »l) was applied to the inner surface of the left ear. The thickness of both ears was then measured with a dial micrometer one hour after treatment, and the data were expressed as the change in thickness (10⁻³ cm) between treated and untreated ears.
Test compounds were given orally in acid/saline at the times indicated in the text prior to the topical application of arachidonic acid.
Dermatol., 82, 367-371 (1984)].

[7] = LTB4 production by RBL-1 high speed supernatant
[8] = total HETE and Di-HETE production by RBL-1 high speed supernatant

In the case of `[O-][S+]1CCn2c1nc(-c1ccc(F)cc1)c2-c1ccncc1` (stereo not shown) [B, 5-(4-pyridyl)-6-(4-fluorophenyl)-2,3-dihydroimidazo [2,1-b]thiazole oxide, reference compound], the “CNS toxicity / adverse CNS effects (comparative statement)” value [1] is reported as “reduced CNS toxicity”, the IC50 ([2]; liver microsomes) is reported as 5 µM and the chromatographic logD [3] is reported as 1.2.

With `CS(=O)(=O)c1ccc(-c2nc3n(c2-c2ccncc2)CCC3)cc1` [Compound 3, 2-(4-Methylsulfonylphenyl)-3-(4-pyridyl)-6.7-dihydro-[5H]-pyrrolo[1,2-a]imidazole] the inhibition at 50 mg/kg [4] was 3%, the IC50 ([2]; microsomes) was > 100 µM and the IC50 [5, 7] was > 100 µM.

In the case of `COc1ccc(-c2nc3n(c2-c2ccccn2)CCC3)cc1` [Compound 4], the inhibition at 50 mg/kg [4] is reported as 29% and the IC50 [5, 7] is reported as > 100 µM.

In the case of `COc1ccc(-c2nc3n(c2-c2cccnc2)CCC3)cc1` [Compound 5], the inhibition at 50 mg/kg [4] is reported as 34% and the IC50 ([2]; microsomes) is reported as > 100 µM.

`Oc1ccc(-c2nc3n(c2-c2ccncc2)CCC3)cc1` [Compound 7] gave an inhibition at 50 mg/kg [6] of 27% and an IC50 [5, 7] of 17 µM.

`CCOc1ccc(-c2nc3n(c2-c2ccncc2)CCC3)cc1` [Compound 8] showed an inhibition at 50 mg/kg [6] of 62% and an IC50 [5, 7] of 6 µM.

`CCCOc1ccc(-c2nc3n(c2-c2ccncc2)CCC3)cc1` [Compound 9] gave an inhibition at 50 mg/kg [6] of 42%, an IC50 [5, 7] of 3.5 µM and an IC50 [5, 8] of 8 µM.

Molecule `CC(C)Oc1ccc(-c2nc3n(c2-c2ccncc2)CCC3)cc1` [Compound 10] has an IC50 ([2]; microsomes) of 2.5 µM and an inhibition at 50 mg/kg [6] of 43%.

Molecule `CC(=O)Sc1ccc(-c2nc3n(c2-c2ccncc2)CCC3)cc1` [Compound 11, 2-(4-Acetylthiophenyl)-3-(4-pyridyl)-6,7-dihydro-[5H]-pyrrolo[1,2-a]imidazole] has an inhibition at 50 mg/kg [6] of 46% and an IC50 [5, 8] of 25 µM.

With `CC(C)(C)C(=O)Sc1ccc(-c2nc3n(c2-c2ccncc2)CCC3)cc1` [Compound 12, 2-(4-Trimethylacetylthiophenyl)-3-(4-pyridyl)-6,7-dihydro-[5H]-pyrrolo[1,2-a]imidazole] the inhibition at 50 mg/kg [6] was 45% and the IC50 [5, 8] was 6 µM.

For `CC(=O)OCSc1ccc(-c2nc3n(c2-c2ccncc2)CCC3)cc1` [Compound 13, 2-(4-Acetoxymethylthiophenyl)-3-(4-pyridyl)-6,7-dihydro-[5H]-pyrrolo[1,2-a]imidazole], the inhibition at 50 mg/kg [6] was 51% and the IC50 [5, 8] was 47 µM.

With `CCSc1ccc(-c2nc3n(c2-c2ccncc2)CCC3)cc1` [Compound 14, 2-(4-Ethylthiophenyl)-3-(4-pyridyl)-6,7-dihydro-[5H]-pyrrolo[1,2-a]imidazole] the IC50 ([2]; liver microsomes) was 28.1 µM, the inhibition at 50 mg/kg [6] was 56% and the IC50 [5, 8] was 30 µM.

With `CC[S+]([O-])c1ccc(-c2nc3n(c2-c2ccncc2)CCC3)cc1` (stereo not shown) [Compound 15, 2-(4-Ethylsulfinylphenyl)-3-(4-pyridyl)-6,7-dihydro-[5H]-pyrrolo[1,2-a]imidazole] the IC50 ([2]; liver microsomes) was > 100 µM, the inhibition at 50 mg/kg [6] was 41% and the IC50 [5, 8] was > 100 µM.

Molecule `CCOC(=O)CSc1ccc(-c2nc3n(c2-c2ccncc2)CCC3)cc1` [Compound 16, 2-(4-Carbethoxymethylthiophenyl)-3-(4-pyridyl)-6,7-dihydro-[5H]-pyrrolo[1,2-a]imidazole] has an inhibition at 50 mg/kg [4] of 15% and an IC50 [5, 8] of 50 µM.

`c1cc(-c2cn3c(n2)CCC3)ccn1` [Compound 17] showed an inhibition at 50 mg/kg [4] of 41% and an inhibition at 50 mg/kg [6] of 20%.

With `CSc1ccc(-c2c(-c3ccncc3)nc3n2CCC3)cc1` [Compound 18] the inhibition at 50 mg/kg [4] was 32% and the inhibition at 50 mg/kg [6] was 28%.

For `C[S+]([O-])c1ccc(-c2c(-c3ccncc3)nc3n2CCC3)cc1` (stereo not shown) [Compound 19], the inhibition at 50 mg/kg [4] was 56% and the inhibition at 50 mg/kg [6] was 52%.

Molecule `CSc1ccc(-c2nc3n(c2-c2ccnc(C)c2)CCC3)cc1` [Compound 20, 2-(4-Methylthiophenyl)-3-[4-(2-methyl)pyridyl]-6,7-dihydro-[5H]-pyrrolo[1,2,a]imidazole] has an inhibition at 50 mg/kg [4] of 59% and an inhibition at 50 mg/kg [6] of 59%.

`Cc1cc(-c2c(-c3ccc([S+](C)[O-])cc3)nc3n2CCC3)ccn1` (stereo not shown) [Compound 21, 2-(4-Methylsulfinylphenyl)-3-[4-(2-methyl)pyridyl]-6,7-dihydro-[5H]-pyrrolo[1,2-]imidazole] showed an inhibition at 50 mg/kg [4] of 14% and an inhibition at 50 mg/kg [6] of 59%.

With `COc1ccc(-c2nc3n(c2-c2ccnc(C)c2)CCC3)cc1` [Compound 22, 2-(4-methoxyphenyl)-3-[4-(2-methyl)pyridyl]-6,7-dihydro-[5H]-pyrrolo[1,2-a]imidazole] the inhibition at 50 mg/kg [4] was 57% and the inhibition at 50 mg/kg [6] was 56%.

Molecule `COc1ccc(-c2nc3n(c2-c2ccnc(C)c2)CCC3)cc1` [Compound 23] has an IC50 ([2]; liver microsomes) of 56.6 µM.

With `CC(C)Cc1ccc(C(C)C(=O)O)cc1` (stereo not shown) [ibuprofen, reference compound] the antiinflammatory activity ([6]; 250 mg/kg) was “do not exhibit detectable antiinflammatory activity”.

In the case of `COc1ccc2c(c1)c(CC(=O)O)c(C)n2C(=O)c1ccc(Cl)cc1` [indomethacin, reference compound], the antiinflammatory activity ([6]; 10 mg/kg) is reported as “did not reduce inflammation; also recorded: do not exhibit detectable antiinflammatory activity”.

For `COc1ccc2cc([C@H](C)C(=O)O)ccc2c1` [naproxen, reference compound], the antiinflammatory activity ([6]; 100 mg/kg) was “do not exhibit detectable antiinflammatory activity”.
